The results in this text go back to patent publication US20250099485A1, “COMPOSITIONS FOR PROMOTING HAIR GROWTH” (ESTETRA SRL, priority 2021, published 2025).

Holding throughout (assay type): cell-based
Test [1] concerns Normal Human Epidermal Keratinocytes (NHEKs). As to the kind of experiment: Colonization of acellular area (IBIDI gap closure), keratinocytes. The following applies: 6 h and 24 h contact, cell gives time of significant effect; for NHEK Proliferation & Migration (colonization of acellular area vs ethanol control): absence of MMC; for NHEK Migration (+MMC) (colonization of acellular area vs ethanol control): presence of mitomycin C. The protocol: The study consists in an in vitro assay aiming to evaluate the properties of E4 and E2 at 4 concentrations each on keratinocytes and fibroblasts. In this assay, the measurement of the colonization of a standard acellular surface generated from a confluent monolayer of cells using a dedicated culture device (IBIDI chamber) is performed. The assay is performed in absence and in presence of a proliferation inhibitor to focus on cell proliferation and migration or on migration only, respectively.
The study was performed using cultures of Normal Human foreskin-derived Epidermal Keratinocytes (NHEKs, Lonza). The cells were grown in serum free Epilife medium (ThermoFisher Scientific) supplemented with Human Keratinocyte Growth Supplement (HKGS, ThermoFisher Scientific) and antibiotics. The cells were maintained in a humidified incubator at 37° C. with a 5% CO2 atmosphere.
Cells were plated in 2-well silicone inserts with a defined cell free gap (IBIDI chambers; IBIDI GmbH, 80209) that was previously inserted on 12-well culture plates. This culture device allows to create a standardized 500 μm±100 μm cell free gap for monitoring cell colonization. 24 h after seeding, when the culture reached high confluency, cells in the insert were treated, or not, with mitomycin C (MMC) at 10 μg/ml during 2 h. After these 2 hours, the insert was removed, and cells were treated with E2 or E4 in presence or not of MMC for additional 2 h. Then, if appropriate, the culture medium was removed and cells were treated with E2 or E4 for 22 h, in absence of MMC.
For the assay, keratinocytes were plated in Epilife medium without HKGS and all the treatments were performed in this medium. Fibroblasts were plated in DMEM medium containing only 2.5% of FBS and the treatments were performed in absence of FBS.
E2 and E4 were applied at 4 concentrations each (10^−7M, 10^−8M, 10^−9M, 10^−10M). In parallel, cells were treated with a positive control (HKGS 1% for human keratinocytes and PDGF-BB at 10 ng/ml for human fibroblasts).
To monitor cell colonization and to evaluate the gap closure rate, pictures of the gap were taken after different times: at time 0 h, corresponding to the beginning of the treatment with E2 or E4 and to the removal of the culture insert, at time 6 h and at time 24 h (corresponding to the end of the treatments with E2 or E4). Pictures were taken with a microscope Zeiss (Axiover 25-10× objective) and with a camera Invenio2EIII (DeltaPix—Lux-Optic). The colonized areas were quantified from the pictures by the use of the WimAsis platform—WimScratch software. For each insert, 3 pictures were taken at each time. As each condition was performed in triplicates, it means a total of 9 pictures per condition and per time point of acquisition

For test [2], the system named is human monocytes. As to the kind of experiment: Immune cell polarization (qPCR NOS2/ARG1), human monocytes. Particulars: activated human monocytes, qPCR marker. How it is done: Immune cell polarization was evaluated in vitro using markers for M1/TH-1 (NOS2) and M2/TH-2 (ARG1) phenotype with human monocytes and mouse monocytes (BMDM bone marrow derived monocytes).
Human blood was collected under national ethical approval with full informed written patient consent. Freshly isolated human blood was collected in EDTA vacutainer tubes, diluted 1:1 in PBS and gently layered onto histopaque (Merck). Tubes were immediately centrifuged at 100×g for 30 minutes and the whitish buffy layer formed at the histopaque interface aspirated and washed (centrifuged 100×g, 10 minutes) twice with sterile PBS. Untouched classical (CD14++, CD16−) monocytes were isolated from the washed buffy layer cells using the Miltenyi Classical Monocyte Isolation Kit, LS columns and a MidiMACs separator (Miltenyi). Isolated cells were seeded into tissue culture plates and stimulated to differentiate using PMA.
An experiment was conducted to evaluate the anti-inflammatory effects of E4 or vehicle (negative control). qPCR methodology was used to assess the effects of E2 and E4 on immune cell polarization using well validated marker of pro-inflammatory (NOS2 for MI/TH-1 phenotype) and anti-inflammatory (ARG1 for ME/TH-2 phenotype) activity.
(Quantitative PCR measures a nucleic acid by following its amplification.)

The test system of test [3] is primary human epidermal keratinocytes. As to the kind of experiment: Keratinocyte scratch assay. The following applies: 10^−10M and 10^−7M, culture condition with 15% HKGS, compared with E2. How it is done: Human skin was transferred to the laboratory in holding media (DMEM containing 4% penicillin-streptomycin and Amphotericin B solution) within 30 minutes of collection. Once defatted, the skin was rinsed in HBSS with 4% PSA followed by DPBS without antibiotics, then cut into thin strips and floated on 0.2% Dispase II in DPBS overnight at 4° C., followed by manual separation of the epidermis from the dermis. Primary human epidermal keratinocytes and primary human dermal fibroblasts were then isolated.
Confluent wells of both primary keratinocytes and fibroblasts were subjected to a highly validated scratch wounding procedure (using a 1 mL sterile filter tip). Post-scratching, cells were rinsed with DPBS and cell-specific media containing treatments added to each well. Cells were imaged on a ptychographic live cell imaging platform (Livecyte 2TM, Phasefocus) for 24-48 hours. Automated tracking of individual unlabeled cells will be combined with 3D cell measurements to quantify a range of wound-relevant cell parameters including scratch closure rate.
Dose range finding experiments were conducted with E4 (10^−10M to 10^−6M) and E2 with and without Mitomycin C (MMC, to inhibit proliferation) using vehicle as negative controls.

For the compound `C[C@]12CC[C@@H]3c4ccc(O)cc4CC[C@H]3[C@@H]1[C@@H](O)[C@@H](O)[C@@H]2O` [E4, 1,3,5 (10)-estratrien-3,15alpha,16alpha,17beta-tetrol], in test [1] (10^−7M), the “NHEK Proliferation & Migration (colonization of acellular area vs ethanol control)” value is “significantly increased the colonization of the acellular area” and the “NHEK Migration (+MMC) (colonization of acellular area vs ethanol control)” value is “significantly increased the colonization of the acellular area”. Besides, in test [1] (10^−10M), the “NHEK Proliferation & Migration (colonization of acellular area vs ethanol control)” value is reported as “significantly increased the colonization of the acellular area” and the “NHEK Migration (+MMC) (colonization of acellular area vs ethanol control)” value is “significantly increased the colonization of the acellular area”. Moreover, in test [2], the “immune cell polarization, human monocytes” value is given as “switch from subtype M1 (pro-inflammatory) to subtype M2 (healing)”. Moreover, in test [3], the “impact on keratinocyte migration, scratch assay” value is listed as “seems higher than the impact of E2”.
